Data: patent US20050142169A1, “Palatability enhanced composition and method for animal consumption” (priority 2003, published 2005)

Legend:
[1] = test system: cats; assay: two-bowl preference test, Example 6 (Feline w/d); assay type: in vivo, cat; conditions: dry wt. of kibble
Text: Finally, a commercial dry palatant enhancer (1.4% dry weight basis) was topically applied to the dry kibbles to complete the test composition.

[2] = test system: dogs; assay: two-bowl preference test, Example 4 (Canine w/d, 2.4% test flavor); assay type: in vivo, dog; conditions: dry wt. of kibble, test flavor 2.4%
Protocol: The experiment comprised mixing various amounts of 2,5-dimethyl-4-hydroxy-3(2H)-furanone with a commercial liquid palatant enhancer as a carrier to form a test flavor. Each of the test flavors (2.4%, dry weight basis) was topically applied to a dry, commercial dog food (Canine w/d from Hill's Pet Nutrition, Inc.) after application of a commercial dry palatant enhancer in choice white grease (0.6%, dry weight basis) to form a test composition. […] The control compositions were prepared by topically applying the commercial liquid palatant enhancer (2.4% dry weight basis) to the dry, commercial dog food (Canine w/d) after application of a commercial dry palatant enhancer in choice white grease (0.6%, dry weight basis). Palatability was determined by comparing the test composition and the control composition in a standard two-bowl preference test over two days with 20 dogs as described in Example 1.

[3] = Exp. No. 7, second set of experiments, 1 ppm
[4] = Exp. No. 8, second set of experiments, 2 ppm
[5] = Exp. No. 9, second set of experiments, 3 ppm
[6] = Exp. No. 10, second set of experiments, 4 ppm
[7] = Exp. No. 11, second set of experiments, 5 ppm
[8] = Exp. No. 12, second set of experiments, 10 ppm
[9] = Exp. No. 6, second set of experiments, 87.1 ppm
[10] = Exp. No. 7, second set of experiments, 130.5 ppm

CC1=C(O)C(=O)C(C)O1 (stereo not shown) [2,5-dimethyl-4-hydroxy-3(2H)-furanone]
Intake Ratio ([1]; Exp. No. 1, 1 ppm): 0.7653 | Preference (%) control composition ([1]; Exp. No. 1, 1 ppm): 20.0% | Preference (%) test composition ([1]; Exp. No. 1, 1 ppm): 80.0% | Status (vs. control) ([1]; Exp. No. 1, 1 ppm): Win | Intake Ratio ([1]; Exp. No. 2, 2 ppm): 0.8280 | Preference (%) control composition ([1]; Exp. No. 2, 2 ppm): 17.6% | Preference (%) test composition ([1]; Exp. No. 2, 2 ppm): 82.6% | Status (vs. control) ([1]; Exp. No. 2, 2 ppm): Win | Intake Ratio ([1]; Exp. No. 3, 3 ppm): 0.9457 | Preference (%) control composition ([1]; Exp. No. 3, 3 ppm): 4.3% | Preference (%) test composition ([1]; Exp. No. 3, 3 ppm): 95.7% | Status (vs. control) ([1]; Exp. No. 3, 3 ppm): Win | Intake Ratio ([1]; Exp. No. 4, 4 ppm): 0.8426 | Preference (%) control composition ([1]; Exp. No. 4, 4 ppm): 16.0% | Preference (%) test composition ([1]; Exp. No. 4, 4 ppm): 84.0% | Status (vs. control) ([1]; Exp. No. 4, 4 ppm): Win | Intake Ratio ([1]; Exp. No. 5, 5 ppm): 0.8957 | Preference (%) control composition ([1]; Exp. No. 5, 5 ppm): 11.1% | Preference (%) test composition ([1]; Exp. No. 5, 5 ppm): 88.9% | Status (vs. control) ([1]; Exp. No. 5, 5 ppm): Win | Intake Ratio ([1]; Exp. No. 6, 10 ppm): 0.8596 | Preference (%) control composition ([1]; Exp. No. 6, 10 ppm): 4.2% | Preference (%) test composition ([1]; Exp. No. 6, 10 ppm): 95.8% | Status (vs. control) ([1]; Exp. No. 6, 10 ppm): Win | Intake Ratio [1, 3]: 0.9077 | Preference (%) control composition [1, 3]: 4.2% | Preference (%) test composition [1, 3]: 95.8% | Status (vs. control) [1, 3]: Win | Intake Ratio [1, 4]: 0.7613 | Preference (%) control composition [1, 4]: 16.0% | Preference (%) test composition [1, 4]: 84.0% | Status (vs. control) [1, 4]: Win | Intake Ratio [1, 5]: 0.8206 | Preference (%) control composition [1, 5]: 13.6% | Preference (%) test composition [1, 5]: 86.4% | Status (vs. control) [1, 5]: Win | Intake Ratio [1, 6]: 0.8957 | Preference (%) control composition [1, 6]: 4.2% | Preference (%) test composition [1, 6]: 95.7% | Status (vs. control) [1, 6]: Win | Intake Ratio [1, 7]: 0.8596 | Preference (%) control composition [1, 7]: 12.5% | Preference (%) test composition [1, 7]: 87.5% | Status (vs. control) [1, 7]: Win | Intake Ratio [1, 8]: 0.7976 | Preference (%) control composition [1, 8]: 15.0% | Preference (%) test composition [1, 8]: 85.0% | Status (vs. control) [1, 8]: Win | Intake Ratio ([2]; Exp. No. 1, 87.1 ppm): 0.6939 | Preference (%) control composition ([2]; Exp. No. 1, 87.1 ppm): 16.0% | Preference (%) test composition ([2]; Exp. No. 1, 87.1 ppm): 76.0% | Status (vs. control) ([2]; Exp. No. 1, 87.1 ppm): Win | Intake Ratio ([2]; Exp. No. 2, 130.5 ppm): 0.6616 | Preference (%) control composition ([2]; Exp. No. 2, 130.5 ppm): 28.0% | Preference (%) test composition ([2]; Exp. No. 2, 130.5 ppm): 72.0% | Status (vs. control) ([2]; Exp. No. 2, 130.5 ppm): Win | Intake Ratio ([2]; Exp. No. 3, 174.0 ppm): 0.6947 | Preference (%) control composition ([2]; Exp. No. 3, 174.0 ppm): 24.0% | Preference (%) test composition ([2]; Exp. No. 3, 174.0 ppm): 76.0% | Status (vs. control) ([2]; Exp. No. 3, 174.0 ppm): Win | Intake Ratio ([2]; Exp. No. 4, 217.5 ppm): 0.7773 | Preference (%) control composition ([2]; Exp. No. 4, 217.5 ppm): 8.0% | Preference (%) test composition ([2]; Exp. No. 4, 217.5 ppm): 92.0% | Status (vs. control) ([2]; Exp. No. 4, 217.5 ppm): Win | Intake Ratio ([2]; Exp. No. 5, 282.8 ppm): 0.8079 | Preference (%) control composition ([2]; Exp. No. 5, 282.8 ppm): 8.3% | Preference (%) test composition ([2]; Exp. No. 5, 282.8 ppm): 87.5% | Status (vs. control) ([2]; Exp. No. 5, 282.8 ppm): Win | Intake Ratio [2, 9]: 0.6058 | Preference (%) control composition [2, 9]: 40.0% | Preference (%) test composition [2, 9]: 60.0% | Status (vs. control) [2, 9]: Win | Intake Ratio [2, 10]: 0.6857 | Preference (%) control composition [2, 10]: 24.0% | Preference (%) test composition [2, 10]: 76.0% | Status (vs. control) [2, 10]: Win
